Assay results from a melting point compilation (Tetko et al.; mined from patent text by program, amines drawn as free bases though some values may be those of a salt).

melting point [°C] | Compound
255 to 256 | CC1Nc2ccc(S(=O)(=O)N3CCCCC3)cc2S(=O)(=O)N1 (stereo unspecified)
95 to 100 | Cc1ncccc1Oc1ccc(N)cn1
165 to 166 | Cc1cccc2c3c(n(Cc4ccccc4)c12)CCCC3=O
107 to 109 | CCOC(Cc1ccc(OCCN2CCOc3ccccc32)cc1)C(N)=O (stereo unspecified)
223 | Cn1c(=O)c(C#N)c(N2CCNCC2)c2cc(Cl)ccc21
188 to 189 | CCS(=O)(=O)c1nsc(NC(=O)N(C)C)c1C#N
150 to 151 | COC(=O)CS(=O)Cc1cccc(-c2nc(=O)c3ccccc3s2)n1 (stereo unspecified)
186 to 190 | O=C(O)c1ccc(SC(Cn2ccnc2)c2ccccc2O)cc1 (stereo unspecified)
133 to 134 | CC(C)(C)OC(=O)N[C@H](Cc1ccccc1)C(=O)NCC(=O)OCc1ccccc1
150 | COCCOc1ccc(COC(=O)NS(=O)(=O)NCC2CC2)c(Oc2ncc(C(F)(F)F)cc2Cl)c1
127 to 129 | CCOC(=O)COc1ccc(C2=NNC(=O)CC2)cc1
114 to 116 | CC(C)Oc1ccc2c(c1O)OC(C)(C)CC2=O
164 | O=C(Cc1cccs1)Nc1cccc2nc(N[C@@H]3CCc4ccccc43)ccc12
99 to 100 | CCOC(=O)c1cc2c3ccccc3n(C)c2s1
248 | NS(=O)(=O)c1cc(C(=O)O)cc([N+](=O)[O-])c1Oc1ccc(Cl)cc1
170 to 173 | CS(=O)c1ccc(C(CC2CCCC2)C(=O)Nc2nccs2)cc1 (stereo unspecified)
56 to 57.5 | CCc1cccc(C)c1NCN1CCOC1=O
119 to 120 | Cc1ccoc1C(=O)Nc1ccc(-n2nc(C(F)(F)F)cc2C(F)(F)F)cc1
58 to 59 | C=CC[C@H](NS(=O)(=O)c1ccc(OC)cc1)C(=O)OC(C)(C)C
190 to 194 | COc1cc2cc3c(Nc4ccc(Oc5ccccc5)c(Cl)c4)c(C#N)cnc3cc2cc1OCCN1CCOCC1
143 | CCCCCOc1ccc(C(=O)Nc2ccc3cc(CN4CCCC4)cnc3c2C)c(F)c1
207 to 208 | O=c1c(-c2cccc(C(F)(F)F)c2)c[nH]n1-c1cccc(C(F)(F)F)c1
170 to 172 | Cc1ccc2c(c1C)OCC(NNc1ncnc3c1ncn3C1OC(CO)C(O)C1O)C2 (stereo unspecified)
168 to 170 | COc1ccc(C(=O)NCCCCCCCCCCNC(=O)c2ccc(OC)cc2)cc1
122 to 124 | CC1(C)CCC(C)(C)C2=C1CC(Cl)C(C)(O)C2 (stereo unspecified)

melting point [°C] | Compound
162 | COc1cccc2c1C(NC1=Nc3ccc(Nc4nnc(C)o4)cc3CO1)CC2 (stereo unspecified)
67 to 69 | CNC(=O)CCC(O)c1ccccc1 (stereo unspecified)
272 to 274 | COc1cc(-c2ccc(O)c(C(C)(C)C)c2)cc(C=C2SC(N(C)C)=NC2=O)c1O
139 to 140 | CCOC(=O)C(C)n1cc(-c2ccc(Oc3ccccc3)cc2)c2c(N)ncnc21 (stereo unspecified)
222 to 224 | O=C(CCl)Nc1cc(C(=O)NC(CO)CO)cc(C(=O)NC(CO)CO)c1
150 to 152 | C=CCOc1ccc2c(=O)c3ccccc3oc2c1C(=O)C=Cc1ccccc1
158 to 161 | CC(C)(C)c1c(-c2ccc(S(C)(=O)=O)cc2)cnn(-c2ccc(F)c(F)c2)c1=O
109 to 110 | CC(C)Nc1ccccc1C(=O)O
99 to 101 | CCCCOC(=O)CNC(=O)c1nc2ccc(OCCCC)cc2cc1OCc1ccccc1
340 to 342 | COc1cccc(NC(=O)NCc2cccc3c2CN(C2CCC(=O)NC2=O)C3=O)c1 (stereo unspecified)
117 | O=C(NCCCc1ccccc1)c1ccccc1NCc1ccncc1
164 to 165 | CNC(=O)C1Cc2c(n(C)c3ccc(OC)cc23)C1 (stereo unspecified)
39 to 40 | Cn1cccc1-c1ccc(C(F)(F)F)cc1
> 260 | S=C1Nc2ccccc2C1(c1c[nH]c2ccccc12)C1CNc2ccccc21 (stereo unspecified)
185 to 187 | CCOC(=O)c1cn(C2CC2)c2cc(F)c(F)c(C)c2c1=O
203 to 205 | CCCNC(=O)NS(=O)(=O)c1cc2c(cc1OC)OCC(NC(=O)c1cc(Cl)ccc1OC)C2 (stereo unspecified)
140 | COc1cc(CCl)c(CCNC(=O)C(F)(F)F)cc1OC
129 to 131 | c1cc(Cc2nnn[nH]2)cc(OCc2ncc3ccccc3n2)c1
95 to 97 | CCOC(=O)c1cc2cc(-c3ccc(N)cc3)ccc2o1
121 to 123 | COc1ccc(C(=CC#N)c2ccc3ccccc3c2)cc1OC
202 to 204 | CC(C)n1nc(-c2c(NC(C)(C)C)nc(N)nc2-c2ccccc2)ccc1=O
38 | O=C(O)c1cc(NCc2c(F)c(F)c(C(F)(F)F)c(F)c2F)ccc1OC(F)(F)F
146 to 148 | COc1cc(N)c(Cl)cc1C(=O)NCC1CCN(CCCSc2ccccc2)CC1
169 to 170 | CC(=O)OC1CSC(Oc2cncc(-c3cccnc3F)c2)C(OC(C)=O)C1OC(C)=O (stereo unspecified)
173 to 175 | CCOC(=O)C1=C(C)NC(C)=C(C(=O)OC)C1c1cccc(N)c1 (single isomer, unassigned; (-))

melting point [°C] | Compound
256 | c1ccc(C(Sc2nc3ccccc3[nH]2)(c2ccccc2)c2ccccc2)cc1
203 to 206 | FC(F)C(F)(F)Oc1ccc(C=NNc2nc(Nc3ccc(OC(F)(F)F)cc3)nc(N3CCOCC3)n2)cc1
67 to 68 | c1cncc(-c2nc(COc3ccc(CCCn4ccnc4)cc3)cs2)c1
62 | CCCC1CCC(c2ccc(-c3cc(F)c(F)c(F)c3C=O)cc2)CC1 (stereo unspecified)
322 to 323 | CCC(C)(C)c1cc(-c2ccc(C=C3SC(N4CCOCC4)=NC3=O)s2)ccc1O
135 to 136 | O=C(N[C@@H]1CONC1=O)OCc1ccccc1
168 to 170 | CC(CN(C)C)Nc1ccnc2cc(Cl)ccc12 (racemic)
219 to 222 | Cc1c(-c2ccc(NC(=O)C(C)C)cc2)sc2c1c(=O)c(C(=O)C(C)C)cn2Cc1c(F)cccc1F
168 to 169 | O=C(Nc1ccc2c(c1)c1ccccc1n2CCO)c1ccccc1Cl
164 to 167 | COc1ccc(NC(=O)c2ccc(OC)c(N)c2)cc1
66 to 67 | Cc1cccc(C(Cl)=NNc2ccccc2)c1
107 to 110 | O=C(O)Cc1cnn(-c2ccccc2)c1-c1ccccc1
205 to 206 | Cc1nc2sc3c(NCCCN4CCCC4=O)ncnc3c2c2c1CCC(C)(C)C2
126 to 128 | Cn1c2c(c3cccc(F)c31)C(=O)CCC2
194 to 196 | COC(=O)c1c(C)[nH]c(=S)n1Nc1cccc(Cl)c1
155 | O=C(O)COc1cc(Cl)ccc1C(=O)NCc1cccc(F)c1
195 to 196 | O=c1[nH]c2ccccc2n1CCN1CCC(C(c2ccccc2)c2ccccc2)CC1
> 250 | Cc1cccc(-c2cc(F)c3c(c2)CC(CN)O3)c1 (stereo unspecified)
295 to 297 | Cc1c(C(=O)O)oc2cc(-c3ccc(Cn4c(C)nc5ccccc54)cc3)ccc12
184 to 186 | CCn1c(C(c2cccc(F)c2)c2cccc(F)c2)nc(-c2ccncc2)c1-c1ccc(Cl)cc1
106 to 108 | CC(=O)Nc1nc(CCc2ccc(CCCN)s2)cs1
90 to 92 | CCCCCCCCc1c(N)nc(S(C)(=O)=O)nc1CC
131 to 134 | CCN1C(=O)C2C3CCC(CC3)C2(c2ccc(Cl)c(Cl)c2)C1=O (stereo unspecified)
166 to 167 | COc1ccc(Cn2cnc3c(-c4ccco4)nc(C(C)=O)nc32)cc1
174 to 176 | O=[N+]([O-])c1ccc2c(c1)N[C@@H]1c3cc([N+](=O)[O-])ccc3C[C@H]21 (relative stereo)

melting point [°C] | Compound
163 to 165 | O=C(O)Cc1ccc2c(c1)CC(=O)c1ccccc1C2
90 | CCCCN(CCCC)CCCOc1ccc(S(=O)(=O)c2ccc3ccccc3c2)cc1
166 to 167 | Cc1ccc2c(c1)S/C(=C(/N)c1ccccc1)C2=O
169 | CON1CCC(=Cc2cc(C(C)(C)C)c(O)c(C(C)(C)C)c2)C1=O
134 to 136 | CC(C)(C)C(=O)C(Oc1ccc(Cl)cc1)n1ncnc1S (stereo unspecified)
94 to 95 | Cc1ccc(C(=O)COc2cc(C)cc(C)c2C)cc1
119 to 120 | CCOC1Cc2cc3ccc(=O)oc3c(OC)c2O1 (stereo unspecified)
133 to 134 | COc1ccc(Cl)cc1-n1cc[nH]c1=O
132 to 134 | COc1cc(N)c(Cl)cc1C(=O)NCC1CCN(CCCOc2ccccc2)CC1
146 | CC(Oc1cccc(Oc2c(Cl)cc(C(F)(F)F)cc2Cl)c1)(C(=O)O)[N+](=O)[O-] (stereo unspecified)
224 to 225 | Cc1nc(N)nc(N)c1-c1cccc2ccccc12
> 285 | O=c1[nH]c2ccc3c(c2[nH]c1=O)CCCN3
293 to 296 | CCn1cc(C(=O)O)c(=O)c2cc(F)c(N3CC(C)(N)C3)c(F)c21
134 to 136 | Nc1ccccc1Cc1nc[nH]n1
138 to 140 | N#Cc1cccc2c1C(=O)OC2O (stereo unspecified)
52 | CC(=O)CC(=O)NC1CCCC1
176 to 177 | Cc1ccc(CCC(=O)NC(C)c2ccc(NS(C)(=O)=O)c(F)c2)cc1C (stereo unspecified)
187 to 191 | COc1cc(C)nc(NC(=O)NS(=O)(=O)c2ccccc2C2CC2(Cl)Cl)n1 (stereo unspecified)
128 to 130 | COc1ccc(OC)c(-c2cc(OC)cc3c2OC(CN)C3)c1 (stereo unspecified)
228 to 229 | Cc1ccc(-c2[nH]c(-c3cccc4ccccc34)nc2C(=O)Nc2nccs2)cc1
149 | Cc1ccc(-c2nc3ccccc3nc2-c2ccc(C)cc2)cc1
118 to 120 | Cn1nc(C(=O)O)nc1CCCC(O)=S
174 to 177 | O=C(Nc1ccccc1)c1cccc(NC(=S)Nc2cc(Cl)cc(Cl)c2)c1
80 to 83 | CC(=O)c1cc2c(cc1OCCCCCBr)OC(C(=O)OC(C)C(C)O)CC2 (stereo unspecified)
125 to 127 | COc1cc(OC)cc(S(=O)(=O)c2ccc([N+](=O)[O-])c(C)c2)c1

Compound | melting point [°C]
CC[C@]12CC[C@H]3[C@@H](CC(C)C4=CC(=O)CC[C@@H]43)[C@@H]1CCC2=O (stereo partly specified) | 141 to 149
